Source: PubChem BioAssay (NCI)
Several values for one entry are separate records, joined by “and”; a condition that tells them apart may be missing. Identical values can stand only once.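 Results reflect a 48-hour exposure of cells in 96-well plates to compound at five concentrations. Abbreviation: GI50, concentration required for 50% inhibition of growth. TGI: concentration producing complete growth inhibition.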

Legend:
Experiment in all cases: DTP human tumour cell line panel, 48 h
TK-10 renal = system: TK-10 renal
SK-OV-3 ovarian = system: SK-OV-3 ovarian
SK-MEL-28 melanoma = system: SK-MEL-28 melanoma
MALME-3M melanoma = system: MALME-3M melanoma
UACC-257 melanoma = system: UACC-257 melanoma
A498 renal = system: A498 renal
KM12 colon = system: KM12 colon
K-562 leukemia = system: K-562 leukemia
IGROV1 ovarian = system: IGROV1 ovarian
MCF7 breast = system: MCF7 breast
SNB-19 CNS = system: SNB-19 CNS
NCI/ADR-RES ovarian = system: NCI/ADR-RES ovarian

| Compound | TGI (TK-10 renal) | TGI (SK-OV-3 ovarian) [µM] | TGI (SK-MEL-28 melanoma) | TGI (MALME-3M melanoma) | TGI (UACC-257 melanoma) | TGI (A498 renal) | TGI (KM12 colon) | TGI (K-562 leukemia) | TGI (IGROV1 ovarian) | TGI (MCF7 breast) [µM] | TGI (SNB-19 CNS) | TGI (NCI/ADR-RES ovarian) [µM] | GI50 (NCI/ADR-RES ovarian) [nM] | GI50 (TK-10 renal) [nM] | GI50 (SK-OV-3 ovarian) [nM] | GI50 (SNB-19 CNS) [nM] | GI50 (MALME-3M melanoma) [nM] | GI50 (IGROV1 ovarian) [nM] | GI50 (MCF7 breast) [nM] | GI50 (K-562 leukemia) |
| --- | --- | --- | --- | --- | --- | --- | --- | --- | --- | --- | --- | --- | --- | --- | --- | --- | --- | --- | --- | --- |
| OCC1O[C@H](O[C@@H]2CCCN3CC(O)C(O)[C@@H]23)C(O)C(O)C1O (some centres not stated) | > 100 µM | > 100 | > 100 µM | > 100 µM | > 100 µM | > 100 µM | > 100 µM | > 100 µM | > 100 µM | – | – | – | – | – | – | – | – | – | – | – |
| COc1cc(OC2OC(CO)C(O)C(O)C2O)c2c(O)c3c(=O)cc(C)oc3cc2c1 (configuration not stated) | > 100 µM | > 100 | > 100 µM | > 100 µM | > 100 µM | > 100 µM | > 100 µM | > 100 µM | > 100 µM | > 100 | > 100 µM | – | – | – | – | – | – | – | – | – |
| S=c1sc2c(s1)SC(c1ccccc1)CS2 (configuration not stated) | – | > 100 | > 100 µM | > 100 µM | > 100 µM | > 100 µM | > 100 µM | > 100 µM | > 100 µM | > 100 | > 100 µM | > 100 | – | – | – | – | – | – | – | – |
| CCCCCC(=O)N[C@@H](c1ccco1)[C@@H](O)C(=O)O[C@H]1C[C@@]2(O)[C@@H](OC(=O)c3ccccc3)[C@@H]3[C@]4(OC(C)=O)CO[C@@H]4C[C@H](O)[C@@]3(C)C(=O)[C@H](OC(C)=O)C(=C1C)C2(C)C | 18.2 µM | > 25 | – | – | – | – | > 25 µM | – | – | > 25 | > 25 µM | > 25 | 617 | 27.5 | 1.63 | 0.55 | 0.357 | 1.29 | – | – |
| CCNC(=O)C(C)C1CCC2(C)C=CC(=O)C(C)=C2C1O (configuration not stated) | – | > 100 | > 100 µM | – | > 100 µM | > 100 µM | > 100 µM | > 100 µM | > 100 µM | > 100 | > 100 µM | > 100 | – | – | – | – | – | – | – | – |
| Nc1nc(Nc2ccc(Cl)c(Cl)c2)nc2nc[nH]c12 | 28.3 µM | 31.8 | – | 32.5 µM | 32.7 µM | 21.7 µM | 28.6 µM | 47.4 µM | 27 µM | 45.6 | 32 µM | 38.3 | – | – | – | – | – | – | – | – |
| C[N+](C)(CCCCCC[N+](C)(C)CCCN1C(=O)c2cccc3cccc(c23)C1=O)CCCN1C(=O)c2cccc3cccc(c23)C1=O | > 100 µM | > 100 | > 100 µM | > 100 µM | > 100 µM | > 100 µM | > 100 µM | > 100 µM | > 100 µM | > 100 | > 100 µM | > 100 | – | – | – | – | – | – | – | – |
| N#C/C(=C\c1ccncc1)c1csc2ccccc12 | – | > 73.1 | > 100 µM | > 96.2 µM | > 75.3 µM | 66.6 µM | 37.8 µM | 50.8 µM | 97.4 µM | > 96.7 | 69.6 µM | 61.8 | – | – | – | – | – | – | – | – |
| O=C1OC(c2ccccc2)=NC1c1ccccc1 (configuration not stated) | > 100 µM | > 100 | > 100 µM | – | > 100 µM | > 100 µM | > 100 µM | > 100 µM | > 100 µM | > 100 | > 100 µM | > 100 | – | – | – | – | – | – | – | – |
| Cc1ccc(/C=C2\Sc3scc(-c4ccccc4)[n+]3C2=O)cc1 | 53.1 µM | > 67.6 | > 100 µM | – | > 62.3 µM | – | > 49.5 µM | 31.5 µM | > 56.8 µM | > 100 | > 72 µM | > 58 | – | – | – | – | – | – | – | – |
| O=C(NN1C(=O)C(Cl)C1c1ccccc1O)c1ccccc1O (configuration not stated) | > 100 µM | > 100 | > 100 µM | > 100 µM | > 100 µM | – | > 100 µM | > 100 µM | > 100 µM | – | 57.9 µM | – | – | – | – | – | – | – | – | – |
| O=[N+]([O-])C(=C/c1ccccc1)/C(=C\c1ccccc1)[N+](=O)[O-] | 29.6 µM | 48.2 | 31.2 µM | – | 32.1 µM | – | 29 µM | > 100 µM | 33.4 µM | 34.4 | 33.4 µM | 42.8 | – | – | – | – | – | – | – | – |
| O=NN1C(c2ccccc2)CNC(=O)CC1c1ccccc1 (configuration not stated) | – | > 89 | > 100 µM | > 100 µM | > 100 µM | > 100 µM | > 100 µM | > 100 µM | > 100 µM | > 100 | > 93.2 µM | > 64.6 | – | – | – | – | – | – | – | – |
| FC(F)(F)c1ccc2c(c1)N(CCCNCCN1CCOCC1)c1ccccc1S2 | 25.4 µM | – | 17.3 µM | 7.15 µM | 23.3 µM | 34.9 µM | 25 µM | 10.2 µM | 33.5 µM | – | 30.1 µM | – | – | – | – | – | – | – | – | – |
| O=C(Nc1ccc([N+](=O)[O-])cc1)Nn1cnnc1 | > 100 µM | > 100 | > 100 µM | 80 µM | > 100 µM | > 100 µM | 72.6 µM | > 100 µM | > 100 µM | > 100 | > 100 µM | – | – | – | – | – | – | – | – | – |
| COc1ccccc1/C=C(/C)[N+](=O)[O-] | 13 µM and 4.21 µM | – | 5.64 µM and 4.97 µM | 5.72 µM and 3.97 µM | 3.4 µM and 3.53 µM | 21.5 µM and 18.4 µM | 10.2 µM and 3.46 µM | 5.15 µM and 7.34 µM | 5.18 µM and 3.72 µM | > 100 | 15.1 µM and 5.77 µM | 8.69 | – | – | – | – | – | – | 593 | 688 nM and 1710 nM |
| OCC#CCNCl | – | > 100 | > 100 µM | > 100 µM | > 100 µM | > 100 µM | > 100 µM | > 100 µM | > 100 µM | > 100 | > 100 µM | > 100 | – | – | – | – | – | – | – | – |
